# Structures can show the parent of a compound that is named as a salt.
# Legend:
# [1] = pKa determination (Sirius GLpKa); type: physicochemical
# Description: The Sirius GLpKa instrument is used to determine the pKa and Log P. A blank standardization has to be completed first and passed in order to conduct the compound experiments. The solutions used by the instrument for the blank titration include water, a pH solution, and a surfactant (TRITON X-100). The TRITON X-100 was purchased commercially from Sirus. The 0.5% solution of TRITON X-100 was used in the experiment. In a 1 L volumetric flask 5 mls of TRITON X-100 is added and MILLI Q water to volume. The vessels used by the instrument were filled to ⅓ of their volume with each solution. Therefore the assay tray contains one vessel for water, pH solution, and surfactant for the blank run. The temperature of the water bath for the instrument is 25° C. The blank is calculated as an average of three “good” experiments. The “good” was denoted by a green check mark next to the assay number in the computer software. Once the blank was run successfully the instrument was ready to conduct the experiments.
# The pKa has to be determined first in order to calculate the Log P. The API is used to determine the pKa needed for the Log P experiment followed by the conjugates. The base compound was first weighed into a vessel. The amount weighed for each sample was 10% of the molecular weight of the compound. The same procedure was followed for each conjugate. The vessels were placed in the assay tray of the instrument. A method had to be set up for the pKa run. The experimental parameters are entered into the computer software. These included sample weight, molecular weight, assay type (aqueous pKa), number of assays (three), and titration range (generally 3.5-12). The run was started. There are three measurements for each run that are averaged to obtain the final results from the data points collected in the calculation software. All runs were denoted as “good” by the green check mark next to the assay number.
# [2] = Log P determination (Sirius GLpKa); type: physicochemical
# Description: The Sirius GLpKa instrument is used to determine the pKa and Log P. A blank standardization has to be completed first and passed in order to conduct the compound experiments. The solutions used by the instrument for the blank titration include water, a pH solution, and a surfactant (TRITON X-100). The TRITON X-100 was purchased commercially from Sirus. The 0.5% solution of TRITON X-100 was used in the experiment. In a 1 L volumetric flask 5 mls of TRITON X-100 is added and MILLI Q water to volume. The vessels used by the instrument were filled to ⅓ of their volume with each solution. Therefore the assay tray contains one vessel for water, pH solution, and surfactant for the blank run. The temperature of the water bath for the instrument is 25° C. The blank is calculated as an average of three “good” experiments. The “good” was denoted by a green check mark next to the assay number in the computer software. Once the blank was run successfully the instrument was ready to conduct the experiments. An additional method has to be set up for the Log P determinations for each compound. The conjugates are weighed into vessels in the same manner as for the previous experiment, i.e., 10% of the molecular weight. The vessels are placed in the assay tray of the instrument. The experimental parameters are entered into the computer. These included sample weight, molecular weight, assay type (Partition Log P), number of assays (three), and pKa value of the parent drug from the previous experiment. The run was started. There are three measurements for each run that are averaged to obtain the final results from the data points collected in the calculation software. All runs were denoted as “good” by the green check mark next to the assay number.
# [3] = Toxicity XTT in CEM-SS cells (cytoprotection assay); type: cell-based; settings: human, CEM-SS TC50
# Description: (§1) Cell Preparation—CEM-SS cells were passaged in T-75 flasks prior to use in the antiviral assay. On the day preceding the assay, the cells were split 1:2 to assure they were in an exponential growth phase at the time of infection. Total cell and viability quantification was performed using a hemocytometer and Trypan Blue dye exclusion. Cell viability was greater than 95% for the cells to be utilized in the assay. The cells were resuspended at 5×10^4 cells per ml in tissue culture medium and added to the drug containing microtiter plates in a volume of 50 μL.
# (§2) Plate Format—Each plate contains cell control wells (cells only), virus control wells (cells plus virus), drug toxicity wells (cells plus drug only), drug colorimetric control wells (drug only) as well as experimental wells (drug plus cells plus virus). Samples were tested in triplicate with eleven half-log dilutions per compound.
# (§3) Efficacy and Toxicity XTT—Following incubation at 37° C. in a 5% CO2 incubator, the test plates were stained with the tetrazolium dye XTT (2,3-bis(2-methoxy-4-nitro-5-sulfophenyl)-5-[(phenylamino)carbonyl]-2H-tetrazolium hydroxide). XTT-tetrazolium is metabolized by the mitochondrial enzymes of metabolically active cells to a soluble formazan product, allowing rapid quantitative analysis of the inhibition of HIV induced cell killing by anti-HIV test substances. XTT solution was prepared daily as a stock of 1 mg/mL in RPMI1640. Phenazine methosulfate (PMS) solution was prepared at 0.15 mg/mL in PBS and stored in the dark at −20° C. XTT/PMS stock was prepared immediately before use by adding 40 μL of PMS per ml of XTT solution. Fifty microliters of XTT/PMS was added to each well of the plate and the plate was re-incubated for 4 hours at 37° C. Plates were sealed with adhesive plate sealers and shaken gently or inverted several times to mix the soluble fosmazan product and the plate was read spectrophotometrically at 450/650 nm with a Molecular Devices Vmax plate reader.
# (§4) Data Analysis—Raw data was collected from the Softmax Pro 4.6 software and imported into a Excel XLFit4 spreadsheet for analysis by four parameter curve fit calculations. Both antiviral activity and toxicity are calculated.
# CEM-SS cells = experiment: as above; type: cell-based; settings: human
# Description: as §1, §2, §3, §4
# in vitro = in vitro ADME; settings: human
# Description: (§5) Each determination was performed in duplicate.
# (§6) Vr is the volume of the receiver compartment in cm^3.
# (§7) Vd is the volume of the donor compartment in cm^3.
# (§8) A is the area of the cell monolayer (1.13 cm^2 for 12-well Transwell®).
# (§9) CN is the nominal dosing concentration of the dosing solution in μM.
# (§10) CA is the average of the nominal dosing concentration and the measured 120 minute donor concentration in μM.
# (§11) Cr^final is the receiver concentration in μM at the end of the incubation period.
# (§12) Cd^final is the concentration of the donor in μM at the end of the incubation period.
# Caco-2 monolayers = experiment: in vitro; type: in vitro ADME; settings: human, Caco-2, 2 h, 10 μM, pH 7.4
# Description: as §5, §6, §7, §8, §9, §10, §11, §12
smiles,measurement,setting,value
"CC(C)Nc1cccnc1N1CCN(C(=O)c2cc3cc(NS(C)(=O)=O)ccc3[nH]2)CC1 [Delavirdine Mesylate, reference compound]",pKa1,[1],4.323
same,pKa2,[1],9.272
same,logP,[2],3.5
same,CC50,[3],27.2 µM
same,CC50,CEM-SS cells,52.4 µM
same,"Papp A→B at 2 hours, 10 μM","in vitro; Caco-2, pH 7.4, Average Papp, A→B",9.87 ×10⁻⁶ cm/s
same,"Papp B→A at 2 hours, 10 μM","in vitro; Caco-2, pH 7.4, Average Papp, B→A",67.9 ×10⁻⁶ cm/s
same,"recovery at 2 h, 10 μM","in vitro; Caco-2, pH 7.4, Recovery (%) A→B",65%
same,Recovery (%) A→B,Caco-2 monolayers,82%
same,Recovery (%) B→A,Caco-2 monolayers,86%

# — patent US9421204B2, “Oligomer modified diaromatic substituted compounds” (priority 2010, dated 2016)
